# Measured values as given in PMC10165945 (Journal of medicinal chemistry, 2013).
# Entries after “also recorded” stand apart in the source; their conditions may differ.
# Assays:
# recombinant human IDE [1] = target: T1, recombinant human IDE (Homo sapiens, UniProt P14735); assay: IDE activity assay, Aß degradation; type: biochemical
# recombinant human IDE [2] = target: T1, recombinant human IDE; assay: IDE activity assay, degradation of fluorogenic peptide substrate FRET1; type: biochemical; conditions: for activity against IDE in words: FRET1 assay; for Ki: n = 3
# [3] = test system: neprilysin (NEP), endothelin-converting enzyme-1 (ECE1), ACE, and MMP-2 and -7; assay: Zinc-metalloprotease selectivity panel versus IDE, common substrate OmniMMP; type: biochemical
# recombinant human IDE [4] = target: T1, recombinant human IDE; assay: IDE activity assay, insulin degradation; type: biochemical
# recombinant human IDE [5] = target: T1, recombinant human IDE; conditions: cited from earlier work
# recombinant human IDE [6] = target: T1, recombinant human IDE; conditions: cited from earlier work; remark: listed apart in the source
# recombinant human IDE [7] = target: T1, recombinant human IDE; conditions: cited from earlier work; remark: listed apart in the source
# MMP7 = target: T2, MMP7 (Homo sapiens, UniProt P09237); assay: Zinc-metalloprotease selectivity dose-response, common substrate OmniMMP: MMP7; type: biochemical; conditions: Figure 3 dose-response curves
# T2 sequence (P09237 95-267): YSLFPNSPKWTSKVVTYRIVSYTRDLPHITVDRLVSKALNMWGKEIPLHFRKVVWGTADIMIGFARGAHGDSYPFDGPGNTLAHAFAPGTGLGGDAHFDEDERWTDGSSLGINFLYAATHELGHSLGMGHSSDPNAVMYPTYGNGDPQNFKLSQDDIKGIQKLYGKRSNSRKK
# T1 sequence (P14735 whole entry): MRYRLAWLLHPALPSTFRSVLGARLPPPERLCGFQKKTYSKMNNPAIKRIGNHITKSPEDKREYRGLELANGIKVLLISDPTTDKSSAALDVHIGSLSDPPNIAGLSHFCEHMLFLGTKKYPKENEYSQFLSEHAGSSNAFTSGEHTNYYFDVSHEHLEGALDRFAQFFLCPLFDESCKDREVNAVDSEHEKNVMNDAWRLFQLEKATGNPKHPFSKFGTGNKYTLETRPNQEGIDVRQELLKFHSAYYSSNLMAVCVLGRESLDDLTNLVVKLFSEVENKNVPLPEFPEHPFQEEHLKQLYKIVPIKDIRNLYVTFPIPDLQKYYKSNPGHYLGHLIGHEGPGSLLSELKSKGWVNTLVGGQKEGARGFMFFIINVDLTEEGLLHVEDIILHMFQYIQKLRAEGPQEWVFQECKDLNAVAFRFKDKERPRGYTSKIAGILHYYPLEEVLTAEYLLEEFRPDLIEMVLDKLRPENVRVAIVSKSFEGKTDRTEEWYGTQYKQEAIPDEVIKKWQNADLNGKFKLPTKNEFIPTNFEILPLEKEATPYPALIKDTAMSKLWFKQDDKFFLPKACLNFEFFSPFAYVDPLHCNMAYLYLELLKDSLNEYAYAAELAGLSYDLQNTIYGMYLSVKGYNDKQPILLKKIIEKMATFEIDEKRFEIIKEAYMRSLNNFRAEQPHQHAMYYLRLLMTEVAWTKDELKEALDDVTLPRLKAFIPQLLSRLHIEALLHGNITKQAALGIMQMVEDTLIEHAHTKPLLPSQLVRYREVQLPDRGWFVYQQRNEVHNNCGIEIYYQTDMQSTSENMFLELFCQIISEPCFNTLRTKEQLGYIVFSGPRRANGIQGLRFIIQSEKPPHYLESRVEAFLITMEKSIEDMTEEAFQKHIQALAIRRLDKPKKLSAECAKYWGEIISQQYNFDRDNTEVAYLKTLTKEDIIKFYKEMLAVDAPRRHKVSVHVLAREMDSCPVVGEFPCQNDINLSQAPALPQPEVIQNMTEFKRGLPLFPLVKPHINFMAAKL
compound,measurement,setting,value
"CC(=O)N[C@H](CCC(=O)NCCNc1cccc2c(S(=O)(=O)O)cccc12)C(=O)N[C@H](Cc1ccc(O)cc1)C(=O)N[C@H](Cc1ccc(C(=O)c2ccccc2)cc1)C(=O)N[C@@H](CC(=O)NO)Cc1ccc2ccccc2c1 [inhibitor 17, Ac-Glu(EDANS)-Tyr-Bpa-2Nap-Hx]",fold lower ki^app for Aß degradation relative to insulin degradation,recombinant human IDE [1]; derived from Table 5,~ 300 fold
same,fold lower ki^app for Aß degradation relative to ki for FRET1 degradation,recombinant human IDE [1]; derived from Table 5,> 30 fold
"(2S,3R)-N^1-((S)-1-amino-5-guanidino-1-oxopentan-2-yl)-N^4,3-dihydroxy-2-(naphthalen-2-ylmethyl)succinamide [inhibitor 12b]",activity against IDE in words,recombinant human IDE [2],abolish activity; also recorded: substantial decreases in potency
"(2R,3S)-N^1-((S)-1-Amino-5-guanidino-1-oxopentan-2-yl)-N^4,3-dihydroxy-2-(naphthalen-2-ylmethyl)succinamide [inhibitor 12a]",activity against IDE in words,recombinant human IDE [2],abolish activity; also recorded: substantial decreases in potency
"(S)-5-Amino-4-((S)-2-((S)-5-guanidino-2-((2S,3R)-3-hydroxy-4-(hydroxyamino)-2-(naphthalen-2-ylmethyl)-4-oxobutanamido)pentanamido)-3-(1H-indol-2-yl)propanamido)-5-oxopentanoic acid [inhibitor 8b]","inhibition of the other proteases tested, in words",[3]; concentrations up to 10 μM,no or only partial inhibition
same,Ki,"recombinant human IDE [4]; read-out: ki^app, nM Insulin, Table 5, substrate insulin 2 nM, n = 3",1890 ± 410 nM
same,Ki,"recombinant human IDE [2]; read-out: ki (nM) (FRET1), Table 1, FRET1 5 μM, 22 °C",103 ± 6.9 nM
same,Ki,"recombinant human IDE [2]; read-out: ki, nM (FRET1), Table 2, truncation, FRET1 5 μM",103 ± 7 nM
same,Ki,"recombinant human IDE [2]; read-out: ki^app, nM FRET1, Table 5, substrate FRET1 5 μM",103 ± 7 nM
same,Ki,"recombinant human IDE [1]; read-out: ki^app, nM FAßB, Table 5, substrate Aß 200 nM, n = 3",927 ± 120 nM
"N=C(N)NCCC[C@@H](NC(=O)[C@@H](Cc1c[nH]c2ccccc12)NC(=O)[C@H](N)CCC(=O)O)C(=O)N[C@@H](CC(=O)NO)Cc1ccc2ccccc2c1 [inhibitor 15, Glu-Trp-Arg-2Nap-Hx]",fold higher ki^app for insulin degradation relative to FRET1,recombinant human IDE [4]; derived from Table 5,> 60 fold
Nc1ncnc2c1ncn2[C@@H]1O[C@H](COP(=O)(O)OP(=O)(O)OP(=O)(O)O)[C@@H](O)[C@H]1O [ATP],effect on degradation of insulin by IDE,recombinant human IDE [5],inhibits
same,effect on degradation of Aß by IDE,recombinant human IDE [6],inhibits
same,effect on degradation of FRET1 by IDE,recombinant human IDE [7],profoundly activates
"C=CCOC(=O)[C@H](CCCNC(=N)N)NC(=O)C(CC(=O)NO)Cc1ccc2ccccc2c1 (stereo in doubt) [inhibitor 14a, (S)-Allyl5-guanidino-2-((S)-4-(hydroxyamino)-2-(naphthalen-2-ylmethyl)-4-oxobutanamido)pentanoate]",fold more potent against IDE vis-à-vis the other proteases tested,[3]; OmniMMP substrate,> 100 fold
same,"fold more potent than the parent amide, 9a","recombinant human IDE [2]; ki, FRET1",~ 13 fold
"N=C(N)NCCC[C@H](NC(=O)C(CC(=O)NO)Cc1ccc2ccccc2c1)C(N)=O (stereo in doubt) [inhibitor 9b, (R)-N^1-((S)-1-amino-5-guanidino-1-oxopentan-2-yl)-N^4-hydroxy-2-(naphthalen-2-ylmethyl)succinamide]",activity against IDE in words,recombinant human IDE [2],inactive
N=C(N)NCCC[C@H](NC(=O)[C@@H](CC(=O)NO)Cc1ccc2ccccc2c1)C(=O)N[C@@H](Cc1c[nH]c2ccccc12)C(=O)N[C@@H](CCC(=O)O)C(N)=O [inhibitor 1a],MMP7 inhibition in words,MMP7,rather potently inhibited
